Source: patent publication US5403824A, “Methods for the treatment of osteoporosis” (The Procter & Gamble Company, priority 1993, dated 1995)
Square brackets hold non-standard residues; d marks the D form. Peptide text beside a SMILES is read from it. dMet(O) = CS(=O)CC[C@@H](N)C(=O)O; Phe(ol) = N[C@H](CO)Cc1ccccc1

Key:
[1] = test system: human subject with postmenopausal osteoporosis or low bone mass; assay: treatment of human subject with osteoporosis, vertebral density by dual-energy photon absorptiometry; type: in vivo; settings: 30 mg intravenously daily (substitutes at comparable levels), 28 days active / 28 days calcium, two years
Method: A human subject weighing about 60 kg (132 lbs), suffering from postmenopausal osteoporosis, is treated by a method of this invention. Specifically, for two years, the enkephalin-degrading enzyme inhibitor DL-3-mercapto-2-benzylpropanoylglycine is administered orally, in a cyclical regimen, where each cycle consists of an active period of 28 days during which a tablet containing 160 mg of said inhibitor is administered each day, followed by a non-active period of 28 days during which the subject receives a daily supplement of calcium (1,000 mg/day), with repeat of cycle.
A human subject weighing about 60 kg (132 lbs), suffering from postmenopausal osteoporosis, is treated by a method of this invention. Specifically, for two years, the compound H-Tyr-D-Ala-Gly-Phe-D-Leu-OH ("DADLE") is administered to the subject, in a cyclical regimen, where each cycle consists of an active period of 28 days during which a solution containing 30 mg of DADLE is administered intravenously every day, followed by a non-active period of 28 days during which the patient receives a daily supplement of calcium (1,000 mg/day), with repeat of cycle.
(§1) A human subject weighing about 60 kg (132 lbs), suffering from postmenopausal osteoporosis, is treated by a method of this invention. Specifically, for two years, an enkephalin of the formula Tyr-D-Cys(S-t-butylthioether)-Gly-Phe-Leu-Thr(O-t-butylether) ("BUBUC") is administered to the subject, in a cyclical regimen, where each cycle consists of an active period of 28 days during which a solution containing 30 mg of BUBUC is intravenously administered each day, followed by a non-active period of 28 days during which the patient receives a daily supplement of calcium (1,000 mg/day), with repeat of cycle.
as §1, with “years, the” for “years, an”, “enkephalin secretagogue Tyr-Arg^1,” for “enkephalin of the formula Tyr-D-Cys(S-t-butylthioether)-Gly-Phe-Leu-Thr(O-t-butylether) ("BUBUC")”, “of Tyr-Arg” for “of BUBUC”, “the subject” for “the patient”, “cycle. […]” for “cycle.”
A human subject weighing about 60 kg (132 lbs), suffering from postmenopausal osteoporosis, is treated by a method of this invention. Specifically, each day for five years, the subject is administered 3 tablets, comprised as follows.
A human subject weighing about 60 kg (132 lbs) is evaluated approximately four years after spontaneous menopause, and is found to have low bone mass. The subject is then treated by a method of this invention to treat osteoporosis. Specifically, once each month for five years, the subject is administered, via intravenous injection, 5 ml of a solution comprised as follows.

[2] = test system: Rat osteoblast-like cells (ROS 17/2.8); assay: [3H]-thymidine incorporation, proliferation of osteoblast-like cells; type: cell-based; settings: ROS 17/2.8, 18 hrs incubation, 2 hrs pulse
Excerpt: Stimulation of osteoblast-like cell proliferation can be measured according to several art-recognized in vitro models. One such model is described in European Patent Publication No. 384,731, by Rodan et al, published Aug. 29, 1990, which is incorporated herein by reference. (Applicants have modified this method by reducing regent volumes to one-quarter those described and by utilizing Dulbecco's Modified eagle's Medium (DMEM).) In this model, proliferation (division) of, for example, rat osteoblast-like cells (rat osteosarcoma (ROS) cells, rat calvaria cells, etc.) is observed by measuring the amount of radiolabeled thymidine ([^3 H]thymidine) incorporated by these cells. ([^3 H]thymidine is "incorporated" by cellular DNA being synthesized as a result of cell proliferation.) The greater the level of [^3 H]thymidine measured, the greater the amount of proliferation of the osteoblast cells.
More specifically, a test sample (comprised of a test compound and osteoblast-like cells) and a control sample (comprised of only osteoblast-like cells) are pulsed with [^3 H]thymidine. The amount of [^3 H]thymidine incorporated by the cells is measured using a direct beta counter.
Rat osteoblast-like cells (ROS 17/2.8) are plated at 4×10^3 cells/well in a 96-well plate in Dulbecco's Modified eagle's Medium supplemented with 2% (v/v) Fetal Bovine Serum, and incubated for 6 hrs. Control (serum-free) medium and test medium (test sample and serum-free medium) are then added to the cells and this combination is incubated for 18 hrs. The cells are then pulsed with [^3 H]-thymidine (1 μCi/well) for 2 hrs. The medium is then removed, the cells are harvested onto glass fibre filters and the amount of [^3 H]-thymidine (counts per minute per well) incorporated into DNA is then determined using a direct beta counter. Values for control groups are then compared to values for treated groups.
(§2) The compound H-Tyr-D-Ala-Gly-Phe-D-Leu-OH ("DADLE") is screened to determine whether it stimulates proliferation of osteoblast-like cells. […] The medium is then removed, the cells are harvested onto glass fibre filters, and the amount of ^3 H-thymidine (counts per minute per well) incorporated into DNA is determined using a direct beta counter. […]
as §2, with “Tyr-D-Cys(S-t-butylthioether)-Gly-Phe-Leu-Thr(O-t-butylether) ("BUBUC")” for “H-Tyr-D-Ala-Gly-Phe-D-Leu-OH ("DADLE")”

[3] = molecular target: mu opioid receptor (Cavia porcellus, UniProt A0ACM8Q262); assay: inhibition of [3H]DAGO binding, method of Goldstein et al.; set-up: species or system guinea pig; settings: radioligand [3H]DAGO
mu opioid receptor, sequence (A0ACM8Q262 1-400): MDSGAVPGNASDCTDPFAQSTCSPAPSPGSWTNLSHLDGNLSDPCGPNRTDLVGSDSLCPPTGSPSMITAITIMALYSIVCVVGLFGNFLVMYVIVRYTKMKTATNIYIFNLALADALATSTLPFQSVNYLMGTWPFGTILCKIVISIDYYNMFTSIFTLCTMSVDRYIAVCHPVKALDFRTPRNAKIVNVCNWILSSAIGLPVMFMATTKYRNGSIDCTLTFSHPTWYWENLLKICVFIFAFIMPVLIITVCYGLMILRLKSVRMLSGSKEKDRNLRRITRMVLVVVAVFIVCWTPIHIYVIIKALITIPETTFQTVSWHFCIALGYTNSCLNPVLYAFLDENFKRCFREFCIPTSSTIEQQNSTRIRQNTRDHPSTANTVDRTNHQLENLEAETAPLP
Excerpt: Affinity for mu opioid receptors can be measured by any of several art-recognized in vitro models. One such model is described by A. Goldstein et al., "Multiple Opioid Receptors: Ligand Selectivity Profiles and Binding Site Signatures", 36 […] 265-272 (1989), which is incorporated herein by reference. According to this model, a test compound is screened for its ability to inhibit binding of a mu-selective radiolabeled ligand ("mu-selective radiolabeled ligand" refers to a radiolabeled compound that is known to have selective affinity for mu opioid receptors) to mu opioid receptor binding sites. More specifically, this in vitro model compares test samples (comprising a mu-selective radiolabeled ligand ("hot ligand"); the non-radiolabeled equivalent to the "hot ligand" ("cold ligand"); test compound at varying concentrations in each test sample; and mu opiate receptor material) and a control sample (comprising hot ligand; cold ligand; and mu opiate receptor material).
Following the protocol set forth by Goldstein et al., the samples are assayed for relative radioactivity.
In assessing a compound's in vitro affinity for mu opioid receptors according the method described by Goldstein et al., the mu-selective radiolabeled ligand (i.e., "hot ligand") is preferrably [^3 H]Tyr-D-Ala-Gly-N-methyl-Phe-Gly(ol) ("[^3 ]DAGO" or "hot DAGO"). […]

| Compound | density of vertebrae / bone mass [1] | further results |
| --- | --- | --- |
| CC(C)C[C@H](NC(=O)[C@H](Cc1ccccc1)NC(=O)CNC(=O)[C@@H](COC(C)(C)C)NC(=O)[C@@H](N)Cc1ccc(O)cc1)C(=O)N[C@H](C(=O)O)[C@@H](C)OC(C)(C)C [H-Tyr-D-Ser(O-t-butylether)-Gly-Phe-Leu-Thr(O-t-butylether)] | substantially similar results |  |
| C[C@@H](NC(=O)[C@@H](N)Cc1ccc(O)cc1)C(=O)NCC(=O)N(C)[C@@H](Cc1ccccc1)C(=O)N[C@H](CO)CC[S+](C)[O-] (stereo partly drawn) [H-Tyr-D-Ala-Gly-N-methyl-Phe-Met(sulfoxide)(ol)] | substantially similar results |  |
| H-Tyr-D-Pen-Gly-Phe-Pen | substantially similar results |  |
| CC(C)C[C@@H](NC(=O)[C@H](Cc1ccccc1)NC(=O)CNC(=O)[C@@H](C)NC(=O)[C@@H](N)Cc1ccc(O)cc1)C(=O)O [DADLE, H-Tyr-D-Ala-Gly-Phe-D-Leu-OH] | an increase in bone mass | [3H]-thymidine incorporation (proliferation) vs control [2]: significantly stimulated proliferation of the osteoblast-like cells; in vitro mu opioid receptor affinity (IC50 ≤1000 times the IC50 of non-radiolabeled DAGO) [3]: significant in vitro mu opioid receptor affinity; density of vertebrae / bone mass ([1]; listed as H-Tyr-D-Ala-Gly-Phe-D-Leu): substantially similar results |
| CSCC[C@@H](NC(=O)[C@@H](N)Cc1ccc(O)cc1)C(=O)NCC(=O)N[C@@H](Cc1ccccc1)C(=O)N1CCC[C@H]1C(N)=O [H-Tyr-D-Met-Gly-Phe-Pro-NH2] (H-Y[dM]GFP-NH2) | substantially similar results |  |
| CC(C)C[C@H](NC(=O)[C@H](Cc1ccccc1)NC(=O)CNC(=O)[C@@H](COC(C)(C)C)NC(=O)[C@@H](N)Cc1ccc(O)cc1)C(=O)N[C@H](C(=O)O)[C@@H](C)O [H-Tyr-D-Ser(O-t-butylether)-Gly-Phe-Leu-Thr] | substantially similar results |  |
| CSCC[C@H](NC(=O)[C@H](Cc1ccccc1)NC(=O)CNC(=O)[C@@H](C)NC(=O)[C@@H](N)Cc1ccc(O)cc1)C(N)=O [H-Tyr-D-Ala-Gly-Phe-Met-NH2] | substantially similar results |  |
| H-(2,6-dimethyl-Try)-D-Ala-NH-phenylpropyl | substantially similar results |  |
| C[S+]([O-])CC[C@@H](NC(=O)[C@@H](N)Cc1ccc(O)cc1)C(=O)NCC(=O)N[C@H](CO)Cc1ccccc1 (stereo partly drawn) [H-Tyr-D-Met(O)-Gly-Phe(ol)] (H-Y[dMet(O)]G[Phe(ol)]) | substantially similar results |  |
| CSCC[C@H](NC(=O)[C@H](Cc1ccccc1)NC(=O)[C@@H](C)NC(=O)[C@@H](N)Cc1ccc(O)cc1)C(N)=O [H-Tyr-D-Ala-Phe-Met-NH2] (H-Y[dA]FM-NH2) | substantially similar results |  |
| CC(C)C[C@H](NC(=O)[C@H](Cc1ccccc1)NC(=O)CNC(=O)[C@@H](C)NC(=O)[C@@H](N)Cc1ccc(O)cc1)C(N)=O [H-Tyr-D-Ala-Gly-Phe-Leu-NH2] | substantially similar results |  |
